Data from ChEMBL document CHEMBL5113453, “Design, synthesis, and biological evaluation of a new series of pyrazole derivatives: Discovery of potent and selective JNK3 kinase inhibitors” (Bioorg Med Chem, 2022).

Key:
HL-60(TB) = assay: Antiproliferative activity against human HL-60(TB) cells measured after 48 hrs by SRB assay; assay type: functional, cell-based
K562 = assay: Antiproliferative activity against human K562 cells measured after 48 hrs by SRB assay; assay type: functional, cell-based
MOLT-4 = assay: Antiproliferative activity against human MOLT-4 cells measured after 48 hrs by SRB assay; assay type: functional, cell-based
RPMI-8226 = assay: Antiproliferative activity against human RPMI-8226 cells measured after 48 hrs by SRB assay; assay type: functional, cell-based
SR = assay: Antiproliferative activity against human SR cells measured after 48 hrs by SRB assay; assay type: functional, cell-based
A549 = assay: Antiproliferative activity against human A549 cells measured after 48 hrs by SRB assay; assay type: functional, cell-based
EKVX = assay: Antiproliferative activity against human EKVX cells measured after 48 hrs by SRB assay; assay type: functional, cell-based
NCI-H226 = assay: Antiproliferative activity against human NCI-H226 cells measured after 48 hrs by SRB assay; assay type: functional, cell-based
NCI-H322M = assay: Antiproliferative activity against human NCI-H322M cells measured after 48 hrs by SRB assay; assay type: functional, cell-based
NCI-H522 = assay: Antiproliferative activity against human NCI-H522 cells measured after 48 hrs by SRB assay; assay type: functional, cell-based
HCT-116 = assay: Antiproliferative activity against human HCT-116 cells measured after 48 hrs by SRB assay; assay type: functional, cell-based
HCT-15 = assay: Antiproliferative activity against human HCT-15 cells measured after 48 hrs by SRB assay; assay type: functional, cell-based
KM12 = assay: Antiproliferative activity against human KM12 cells measured after 48 hrs by SRB assay; assay type: functional, cell-based
SW-620 = assay: Antiproliferative activity against human SW-620 cells measured after 48 hrs by SRB assay; assay type: functional, cell-based
SF-268 = assay: Antiproliferative activity against human SF-268 cells measured after 48 hrs by SRB assay; assay type: functional, cell-based
SNB-19 = assay: Antiproliferative activity against human SNB-19 cells measured after 48 hrs by SRB assay; assay type: functional, cell-based
SNB-75 = assay: Antiproliferative activity against human SNB-75 cells measured after 48 hrs by SRB assay; assay type: functional, cell-based
Malme-3M = assay: Antiproliferative activity against human Malme-3M cells measured after 48 hrs by SRB assay; assay type: functional, cell-based
M14 = assay: Antiproliferative activity against human M14 cells measured after 48 hrs by SRB assay; assay type: functional, cell-based
SK-MEL-28 = assay: Antiproliferative activity against human SK-MEL-28 cells measured after 48 hrs by SRB assay; assay type: functional, cell-based
UACC-62 = assay: Antiproliferative activity against human UACC-62 cells measured after 48 hrs by SRB assay; assay type: functional, cell-based
OVCAR-3 = assay: Antiproliferative activity against human OVCAR-3 cells measured after 48 hrs by SRB assay; assay type: functional, cell-based
OVCAR-4 = assay: Antiproliferative activity against human OVCAR-4 cells measured after 48 hrs by SRB assay; assay type: functional, cell-based
OVCAR-5 = assay: Antiproliferative activity against human OVCAR-5 cells measured after 48 hrs by SRB assay; assay type: functional, cell-based
OVCAR-8 = assay: Antiproliferative activity against human OVCAR-8 cells measured after 48 hrs by SRB assay; assay type: functional, cell-based
NCI/ADR-RES = assay: Antiproliferative activity against human NCI-ADR-RES cells measured after 48 hrs by SRB assay; assay type: functional, cell-based
SK-OV-3 = assay: Antiproliferative activity against human SK-OV-3 cells measured after 48 hrs by SRB assay; assay type: functional, cell-based
786-0 = assay: Antiproliferative activity against human 786-0 cells measured after 48 hrs by SRB assay; assay type: functional, cell-based
A498 = assay: Antiproliferative activity against human A498 cells measured after 48 hrs by SRB assay; assay type: functional, cell-based
ACHN = assay: Antiproliferative activity against human ACHN cells measured after 48 hrs by SRB assay; assay type: functional, cell-based
CAKI-1 = assay: Antiproliferative activity against human CAKI-1 cells measured after 48 hrs by SRB assay; assay type: functional, cell-based
RXF 393 = assay: Antiproliferative activity against human RXF 393 cells measured after 48 hrs by SRB assay; assay type: functional, cell-based
SN12C = assay: Antiproliferative activity against human SN12C cells measured after 48 hrs by SRB assay; assay type: functional, cell-based
PC-3 = assay: Antiproliferative activity against human PC-3 cells measured after 48 hrs by SRB assay; assay type: functional, cell-based
DU-145 = assay: Antiproliferative activity against human DU-145 cells measured after 48 hrs by SRB assay; assay type: functional, cell-based
BT-549 = assay: Antiproliferative activity against human BT-549 cells measured after 48 hrs by SRB assay; assay type: functional, cell-based
MDA-MB-468 = assay: Antiproliferative activity against human MDA-MB-468 cells measured after 48 hrs by SRB assay; assay type: functional, cell-based
WI-38 = assay: Antiproliferative activity against human WI-38 cells measured by MTT assay; assay type: functional, cell-based
[1] = molecular target: T1, Mitogen-activated protein kinase 10 (Homo sapiens, UniProt P53779); assay: Inhibition of JNK3 (unknown origin) at 1 uM relative to control
T1 sequence (P53779 whole entry): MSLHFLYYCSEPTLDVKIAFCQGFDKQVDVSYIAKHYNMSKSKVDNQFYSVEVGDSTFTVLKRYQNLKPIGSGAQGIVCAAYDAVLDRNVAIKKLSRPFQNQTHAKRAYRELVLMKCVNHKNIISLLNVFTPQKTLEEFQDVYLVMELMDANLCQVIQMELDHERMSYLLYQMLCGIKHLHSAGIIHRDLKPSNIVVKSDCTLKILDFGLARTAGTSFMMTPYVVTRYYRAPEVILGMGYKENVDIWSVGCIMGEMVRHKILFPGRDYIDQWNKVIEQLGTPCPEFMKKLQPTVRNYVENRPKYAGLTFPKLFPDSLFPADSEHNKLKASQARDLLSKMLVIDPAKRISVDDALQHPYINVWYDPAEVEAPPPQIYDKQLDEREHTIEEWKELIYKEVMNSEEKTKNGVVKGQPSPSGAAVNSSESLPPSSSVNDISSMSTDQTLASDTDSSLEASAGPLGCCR

[2] = molecular target: T1, Mitogen-activated protein kinase 10; assay: Inhibition of JNK3 (unknown origin)

Question: How did the IC50 (HL-60(TB); HL-60, 48 h) turn out when `O=C(NCCCNc1cc(-c2cn(-c3ccccc3)nc2-c2cccc(O)c2)ccn1)Nc1cccc(C(F)(F)F)c1` was run?
Answer: 3.42 µM

Question: And the TGI (HL-60(TB); HL-60, time 48 hrs)?
Answer: 14.5 µM

Question: What about the IC50 (K562; K562, 48 h) of the same compound?
Answer: 1.26 µM

Question: What about the TGI (K562; K562, time 48 hrs) of the same compound?
Answer: > 14.5 µM

Question: What about the IC50 (MOLT-4; MOLT-4, 48 h) of the same compound?
Answer: 1.67 µM

Question: What about the TGI (MOLT-4; MOLT-4, time 48 hrs) of the same compound?
Answer: 15 µM

Question: What about the IC50 (RPMI-8226; RPMI-8226, 48 h) of the same compound?
Answer: 0.73 µM

Question: And the TGI (RPMI-8226; RPMI-8226, time 48 hrs)?
Answer: 6.12 µM

Question: And the IC50 (SR; 48 h)?
Answer: 1.65 µM

Question: And the TGI (SR; time 48 hrs)?
Answer: 12.8 µM

Question: And the IC50 (A549; A549, 48 h)?
Answer: 3.35 µM

Question: And the TGI (A549; A549, time 48 hrs)?
Answer: 11.2 µM

Question: What about the IC50 (EKVX; 48 h) of the same compound?
Answer: 3.5 µM

Question: What about the TGI (EKVX; time 48 hrs) of the same compound?
Answer: 8.45 µM

Question: And the IC50 (NCI-H226; NCI-H226, 48 h)?
Answer: 4.88 µM

Question: What about the TGI (NCI-H226; NCI-H226, time 48 hrs) of the same compound?
Answer: 11.5 µM

Question: And the IC50 (NCI-H322M; 48 h)?
Answer: 4.24 µM

Question: What about the TGI (NCI-H322M; time 48 hrs) of the same compound?
Answer: 9.32 µM

Question: What about the IC50 (NCI-H522; NCI-H522, 48 h) of the same compound?
Answer: 5.12 µM

Question: And the TGI (NCI-H522; NCI-H522, time 48 hrs)?
Answer: 11 µM

Question: And the IC50 (HCT-116; HCT-116, 48 h)?
Answer: 1.97 µM

Question: And the TGI (HCT-116; HCT-116, time 48 hrs)?
Answer: 6.33 µM

Question: And the IC50 (HCT-15; HCT-15, 48 h)?
Answer: 1.06 µM

Question: And the TGI (HCT-15; HCT-15, time 48 hrs)?
Answer: 4.32 µM

Question: What about the IC50 (KM12; KM12, 48 h) of the same compound?
Answer: 2.63 µM

Question: What about the TGI (KM12; KM12, time 48 hrs) of the same compound?
Answer: 7.39 µM

Question: What about the IC50 (SW-620; SW-620, 48 h) of the same compound?
Answer: 3.85 µM

Question: What about the TGI (SW-620; SW-620, time 48 hrs) of the same compound?
Answer: 8.31 µM

Question: And the IC50 (SF-268; SF-268, 48 h)?
Answer: 3.26 µM

Question: What about the TGI (SF-268; SF-268, time 48 hrs) of the same compound?
Answer: 9.69 µM

Question: And the IC50 (SNB-19; SNB-19, 48 h)?
Answer: 3.99 µM

Question: What about the TGI (SNB-19; SNB-19, time 48 hrs) of the same compound?
Answer: 8.97 µM

Question: What about the IC50 (SNB-75; SNB-75, 48 h) of the same compound?
Answer: 0.74 µM

Question: What about the TGI (SNB-75; SNB-75, time 48 hrs) of the same compound?
Answer: 4.1 µM

Question: What about the IC50 (Malme-3M; 48 h) of the same compound?
Answer: 1.54 µM

Question: What about the TGI (Malme-3M; time 48 hrs) of the same compound?
Answer: 6.08 µM

Question: And the IC50 (M14; M14, 48 h)?
Answer: 2.18 µM

Question: And the TGI (M14; M14, time 48 hrs)?
Answer: 6.98 µM

Question: And the IC50 (SK-MEL-28; SK-MEL-28, 48 h)?
Answer: 3.48 µM

Question: And the TGI (SK-MEL-28; SK-MEL-28, time 48 hrs)?
Answer: 7.51 µM

Question: What about the IC50 (UACC-62; UACC-62, 48 h) of the same compound?
Answer: 4.41 µM

Question: What about the TGI (UACC-62; UACC-62, time 48 hrs) of the same compound?
Answer: 8.84 µM

Question: What about the IC50 (OVCAR-3; OVCAR-3, 48 h) of the same compound?
Answer: 1.87 µM

Question: What about the TGI (OVCAR-3; OVCAR-3, time 48 hrs) of the same compound?
Answer: 9.35 µM

Question: What about the IC50 (OVCAR-4; OVCAR-4, 48 h) of the same compound?
Answer: 2.13 µM

Question: What about the TGI (OVCAR-4; OVCAR-4, time 48 hrs) of the same compound?
Answer: 7.75 µM

Question: What about the IC50 (OVCAR-5; OVCAR-5, 48 h) of the same compound?
Answer: 3.96 µM

Question: What about the TGI (OVCAR-5; OVCAR-5, time 48 hrs) of the same compound?
Answer: 9.71 µM

Question: And the IC50 (OVCAR-8; OVCAR-8, 48 h)?
Answer: 3.88 µM

Question: What about the TGI (OVCAR-8; OVCAR-8, time 48 hrs) of the same compound?
Answer: 10 µM

Question: And the IC50 (NCI/ADR-RES; 48 h)?
Answer: 4.9 µM

Question: What about the TGI (NCI/ADR-RES; time 48 hrs) of the same compound?
Answer: 12.8 µM

Question: And the IC50 (SK-OV-3; SK-OV-3, 48 h)?
Answer: 4.49 µM

Question: What about the TGI (SK-OV-3; SK-OV-3, time 48 hrs) of the same compound?
Answer: 10.1 µM

Question: What about the IC50 (786-0; 786-0, 48 h) of the same compound?
Answer: 1.07 µM

Question: And the TGI (786-0; 786-0, time 48 hrs)?
Answer: 3.71 µM

Question: What about the IC50 (A498; A498, 48 h) of the same compound?
Answer: 3.17 µM

Question: What about the TGI (A498; A498, time 48 hrs) of the same compound?
Answer: 7.18 µM

Question: And the IC50 (ACHN; 48 h)?
Answer: 5.24 µM

Question: What about the TGI (ACHN; time 48 hrs) of the same compound?
Answer: 15.5 µM

Question: And the IC50 (CAKI-1; CAKI-1, 48 h)?
Answer: 1.9 µM

Question: And the TGI (CAKI-1; CAKI-1, time 48 hrs)?
Answer: 12.3 µM

Question: And the IC50 (RXF 393; RXF 393, 48 h)?
Answer: 1.08 µM

Question: And the TGI (RXF 393; RXF 393, time 48 hrs)?
Answer: 4.96 µM

Question: What about the IC50 (SN12C; 48 h) of the same compound?
Answer: 3.65 µM

Question: What about the TGI (SN12C; time 48 hrs) of the same compound?
Answer: 7.91 µM

Question: And the IC50 (PC-3; PC-3, 48 h)?
Answer: 1.79 µM

Question: What about the TGI (PC-3; PC-3, time 48 hrs) of the same compound?
Answer: 11.2 µM

Question: And the IC50 (DU-145; DU-145, 48 h)?
Answer: 4.8 µM

Question: And the TGI (DU-145; DU-145, time 48 hrs)?
Answer: 11.9 µM

Question: And the IC50 (BT-549; BT-549, 48 h)?
Answer: 3.26 µM

Question: What about the TGI (BT-549; BT-549, time 48 hrs) of the same compound?
Answer: 7.63 µM

Question: What about the IC50 (MDA-MB-468; MDA-MB-468, 48 h) of the same compound?
Answer: 1.61 µM

Question: And the TGI (MDA-MB-468; MDA-MB-468, time 48 hrs)?
Answer: 6.16 µM

Question: What about the IC50 (WI-38) of the same compound?
Answer: 13.6 µM

Question: And the inhibition [1]?
Answer: 73%

Question: And the IC50 [2]?
Answer: 0.474 µM
